The values below come from patent publication US20230003721A1, “MITOTHERAPEUTICS FOR THE TREATMENT OF BRAIN DISORDERS” (The University of Florida Research Foundation, Inc., priority 2019, published 2023).

Where a name gives a salt, the structure may show the parent alone.

One may read the EC50 as the concentration needed to bring the measured effect to its halfway point.

The subject of test [1] is isolated forebrain mitochondria. Nature of the test: ATP production of isolated mitochondria (luciferase-based kinetic assay). Format: biochemical, mouse. The procedure:
Isolation of mitochondria. For the ATP synthesis experiments of FIG. 6, forebrains from P0 pups were dissected as described above. 2×10^7 cells were harvested for high-purity mitochondrial isolation using the Qiagen QProteome kit. The mitochondrial pellet was resuspended in 500 μl mitochondria storage buffer (provided by kit) and kept on ice until further use.
ATP production of isolated forebrain mitochondria of P0 pups was measured by ATP Determination Kit (Molecular Probes). […] The reactions were initiated by the addition of 1 mM ADP (deprived of ATP contamination by adding 3 U/ml hexokinase to 10 mM of ADP in 50 mM Tris-HCl, 20 mM MgCl2 and 22 mM glucose, incubating the solution at 37° C. for 1 hr and heat inactivating the hexokinase at 100° C. for 3 min). Luminescence was recorded every 15-30 sec for 1 hr at 580±40 nm.

Test [2] deals with primary neurons. Nature of the test: Oxygen consumption rate (OCR) of permeabilized primary neurons. It is filed as cell-based, mouse.
Procedure: The oxygen consumption rate (OCR) of permeabilized neurons and isolated brain mitochondria (from 9-month old mice) was measured by the XF96 Extracellular Flux analyzer (Seahorse Bioscience). […] Prior to the start of the OCR measurement, all but 30 μl of Neurobasal A/B27 culture medium was removed from each well. Cells were washed twice with pre-warmed MAS-BSA assay medium (4 mg/ml fatty-acid free BSA, pH=7.2) and incubated in 180 μl at 37° C. for 5 min. Following the cartridge calibration, cells were loaded into the XF96 Extracellular Flux analyzer and further equilibrated for 10 min with two cycles of 3 min mixing and 2 min resting prior to the first measurement of basal respiration. OCR were measured at 37° C. under basal conditions followed by the sequential injection of pre-warmed 10× mitochondrial substrates/ADP (20 μl), oligomycin (22 μl), FCCP (24 μl), and rotenone/antimycin A (26 μl). The final concentrations of injected compounds were as follows: 10 mM mitochondrial substrates (pyruvate/malate or succinate), 1 mM ADP, 1.5 μM oligomycin, 3 μM FCCP, 2 μM rotenone/antimycin A. Saponin (25 μg/ml) was co-injected with substrate/ADP to permeabilize the cells and stimulate ADP-dependent respiration. Two baseline measurements were obtained prior to any injection and 2 response measurements were collected after each injection except for after FCCP addition which consisted of 1 measurement (9 total measurements in each assay). Each measurement cycle consisted of 2 min mixing, 2 min waiting, and 3 min data acquisition. This protocol allowed for sequential assessment of basal cell respiration, maximal mitochondrial respiratory capacity (State 3 with substrate/ADP), proton leak (State 4o with oligomycin), uncoupled maximal respiration (State 3U with FCCP) and non-mitochondrial respiration with the Complex I/Complex III inhibitors, rotenone/antimycin A. Cells were washed twice with MAS buffer to remove residue BSA contained in the assay medium, lysed in 50 μl lysis buffer (25 mM HEPES, 1 mM EGTA, 1 mM EDTA, 0.1% SDS, 1% NP-40, 1× protease and phosphatase inhibitor, pH 7.0 adjusted with NaOH) and total protein was determined by BCA assay. Oxygen consumption was normalized to total protein content as pmol O2/min/ug total protein.
Oxygen consumption rate (OCR) or extracellular acidification rate (ECAR) measurements from permeabilized neurons and isolated brain mitochondria were performed using the XF96 Extracellular Flux analyzer (Seahorse Bioscience). For assays using cultured neurons, primary neurons were dissociated from the forebrains of P0 pups, seeded at 1.9×10^4/well (PDL-coated XF96 plate), cultured to DIV13 and incubated with selected compounds or DMSO (0.1%) for 24 h. Prior to the start of the OCR measurement, all but 30 μl of Neurobasal A/B27 culture medium was removed from each well. Cells were washed twice with pre-warmed MAS-BSA assay medium (70 mM sucrose, 220 mM mannitol, 10 mM KH2PO4, 5 mM MgCl2, 2 mM HEPES and 1 mM EGTA, 4 mg/ml fatty-acid free BSA, pH=7.2 adjusted using KOH) and incubated in 180 ul MAS-BSA medium at 37° C. in a CO2-free incubator for 5 m. […] OCR and ECAR were measured at 37° C. under basal conditions followed by the sequential injection of pre-warmed 10× mitochondrial substrates/ADP (20 μl), oligomycin (22 μl), FCCP (24 μl), and rotenone/antimycin A (26 μl).
Test [3] concerns primary neurons. Nature of the test: Mitochondrial morphology and neurite area after functional modulators. More on the design: key to Neurite Area: non-significant (n.s.). To be noted: for axonal mitochondrial circularity / neuritic area: after 48 h of treatment; for Mitochondrial Morphology / Neurite Area: significant change. It is filed as cell-based, mouse.
Test [4] deals with primary neurons. Nature of the test: TMRM fluorescence assay of inner mitochondrial membrane potential (ΔΨm). The note with it: for Emax / EC50: Mus musculus, Primary neuron; for Emax: read-out: TMRM (Effect-size); for EC50: read-out: TMRM-EC50; for TMRM Primary: primary screen, 12.5 μM; for TMRM Primary / TMRM Rescreen: 24 h.
Another test concerns Drosophila model for AD. As to the kind of experiment: Drosophila model for AD: neuronal mitochondrial morphology. It is filed as in vivo. The note with it: cell bodies of neurons; 100 micromolar, 15 days-of-age. The source says:
To assay representative compounds in this example, we employed a Drosophila model for AD (X. Wang et al., Mol. Neurobiol. […] Flies expressing this toxic protein show: […] Drugs that show efficacy therefore: enlarge neuronal mitochondria (increased volume, increased surface area, increased length), reduce sphericity, and reduce the number of mitochondria compared to untreated Alzheimer's flies. The AD model flies were collected immediately after eclosion from the pupal case and transferred to food that was laced with drug at 100 micromolar concentration. The flies were aged to 15 days-of-age: this is when the mitochondrial pathology is very robust. We compared the morphology of mitochondria collected from these flies treated with drug and compared them to the mitochondria of flies that remained untreated.

For test [5], the system named is NRF2-mediated antioxidant response. The note with it: WO2012149478A3; cited from earlier work.

`CCCCOc1ccc(C(=O)CCN2CCCCC2)cc1` [DYCLONINE HYDROCHLORIDE]: the “ATP production kinetics, amplitude of single exponential fit” value in test [1] (12 μM, starting 20 min after addition, DMSO 22498±358) was 28882±673. Further, the “ATP production of isolated mitochondria (direct effect)” value in test [1] (12.5 μM, within the 45-min measurement period, vs DMSO) is reported as “significantly increased”. The “State 3 and 3u respiration stimulated by either Complex I or Complex II substrates” value in the test with primary neurons [2] (10 μM, 24 h, cultured neurons) is “significant increase”. Moreover, the OCR result in the test with primary neurons [2] (oxygen consumption rate, significant change) is given as “increased”. Further, in the test with primary neurons [3], the axonal mitochondrial circularity result was “robust effects”, the neuritic area result is given as “increase”, the “Mitochondrial Morphology” value is given as “elongated” and the “Neurite Area” value is “increased”. Also, in the test on primary neurons [4], the Emax turned out to be 22%, the EC50 was determined as 0.75 µM, the “TMRM Primary” value is 3.64 Z-scores and the “TMRM Rescreen” value came out at 6.30 Z-scores.

For the molecule `O=c1c(-c2ccc(O)cc2)coc2cc(O)cc(O)c12` [GENISTEIN], in the test with primary neurons [3], the “Mitochondrial Morphology” value was “elongated” and the “Neurite Area” value was “n.s”. In the test with primary neurons [4], the Emax came to 19.5%, the EC50 came out at 1.3 µM, the “TMRM Primary” value was 3.38 Z-scores and the “TMRM Rescreen” value is reported as 4.21 Z-scores. Also, the “Surface area of mitochondria, p (treated vs untreated)” value in the test with Drosophila model for AD is recorded as “p = 0.083”.

As to `COC(=O)[C@@H]1[C@H]2C[C@H]3c4[nH]c5ccccc5c4CCN3C[C@@H]2CC[C@@H]1O` [YOHIMBINE HYDROCHLORIDE], the “neuroprotection by inducing the NRF2-mediated antioxidant response” value in test [5] is “neuroprotective”. In the test with primary neurons [3], the axonal mitochondrial circularity entry is recorded as “robust effects”, the neuritic area result is “increase”, the “Mitochondrial Morphology” value was “elongated” and the “Neurite Area” value was “increased”. Moreover, in the test with primary neurons [4], the Emax came out at 18.6%, the EC50 amounted to 0.62 µM, the “TMRM Primary” value turned out to be 2.70 Z-scores and the “TMRM Rescreen” value stood at 5.70 Z-scores.
